Data from patent publication US20230391817A1, “5ALPHA-HYDROXY-6BETA-[2-(1-H-IMIDAZOL-4-YL)-ETHYLAMINO]-CHOLESTAN-3BETA-OL ANALOGUES AND PHARMACEUTICAL COMPOSITIONS COMPRISING SAME FOR USE IN THE TREATMENT OF CANCER” (priority 2020, published 2023).
Where two headings read alike, the source gives them in different places.

How the values were obtained:
Type in all cases: cell-based
[1] = test system: BT-474 human mammary tumor cells; assay: Cell viability of BT-474 cells, LDH; settings: BT-474, LDH, 48 h; for Mean LogIC50 (±SEM): log of IC50 in μM; for IC50: Homo sapiens
Procedure: For the second method, the percentage of viability is determined by assaying the activity of the enzyme LDH (lactate dehydrogenase) in cell supernatants using the non radioactive cytotoxicity assay kit (Promega). LDH is an enzyme released in the supernatant of dead cells. The higher the LDH activity in the supernatant, the greater the cell death. In this enzyme assay, the LDH released converts a violet tetrazolium salt to a red colored formazan, absorbing at 490 nm. The intensity of the red color is proportional to the number of dead cells. After 48 h of treatment, the supernatants are transferred to a new 96-well plate and incubated for 30 minutes in the presence of substrate mix at room temperature. The reaction is stopped with stop solution reagent and the absorbance is determined at 490 nm. The percentage of cell death is determined here using a 100% maximum LDH activity control (made from untreated cells incubated in the presence of lysis solution for 45 minutes at 37° C. just prior to addition of the substrate mix), and the cell viability in each well is then deduced from this percentage. The IC50 is then determined as explained in the preceding paragraph.
Cell viability tests were also performed on BT-474 human mammary tumor cells (characterized as triple positive HER2+, ER+, PR+). The BT-474 cells were in a cell culture medium identical to the previous example and seeded in 24-well plates at 70 000 cells per well for cell viability determination using trypan blue, or in 96-well plates at 13 000 cells per well for cell viability determination using the MTT or LDH assay. After 96 hours (h) of culture under normal conditions, i.e. in an incubator at 37° C. with […], BT-474 cells were treated for 48 h with DX101, DX103, DX105, DX111, DX123 and DX127 at 100 nM, 1 μM, 2.5 μM and 10 μM. A control is also performed using the protocol described previously without treatment with DX101, DX103, DX105, DX111, DX123 and DX127.
After a 10-minute trypsin digestion at 37° C., the cell survival was also quantified by means of a trypan blue test with automatic counting using the Biorad TC20 machine (TC20™ Automated Cell Counter). The trypan blue test is based on the integrity of cell membranes, which is disrupted in the dead cells. Trypan blue stains dead cells blue. The Biorad TC20 cell counter counts the proportion of blue and non-blue cells, and reports the percentage of cells. The percentage of viability is then determined in each well relative to the untreated cells and the IC50 is determined as explained in the preceding example. Also, the percentage viability of the BT-474 cells was determined using the MTT and LDH assay, performed as described in the preceding example.

MCF-7 breast tumor cells = assay: cells; settings: for cell viability in MTT compared with the control: 1, 2.5 or 5 μM, 48 h; for viability at 5 µM: Homo sapiens, MCF7, 48 h, read-out: percentage of cell viability relative to the control group
Procedure: A cell viability test was performed on MCF-7 (Michigan Cancer Foundation-7) breast tumor cells […] (ER(+) cells).
The MCF-7 cells are in a cell culture medium identical to that of Example 5 and are seeded in 12-well plates at 50 000 cells per well. 24 hours after seeding, the cells are treated with vehicle solvate comprising water and ethanol with a 1% o ratio of ethanol, 3β-fluoro-5α-hydroxy-6β-[2-(1H-imidazol-4-yl)ethylamino]cholestane, and 5α-hydroxy-6β-[2-(1H-imidazol-4-yl)ethylamino]cholestan-3β-ol at 1, 2.5 or 5 μM. The cells are observed under an inverted microscope and photographed via the microscope camera at 24 h and 48 h. The morphological changes in the cells at 1 μM are very small. […] The effects are more marked at 2.5 μM and 5 μM with an increase in the number of dead cells. […] After 24 h of treatment with 3β-fluoro-5α-hydroxy-6β-[2-(1H-imidazol-4-yl)ethylamino]-cholestane at 5 μM, 99% of the observed cells are supernatant, reflecting cell death, and 1% of the cells are adherent and show white vesicles. […] The cytostatic effect is illustrated by an inhibition of cell proliferation.
The cell viability is measured by labeling with MTT at 48 hours. This test is based on the use of the tetrazolium salt MTT (3-(4,5-dimethylthiazol-2-yl)-2,5-diphenyltetrazolium bromide). Tetrazolium is reduced by mitochondrial succinate dehydrogenase in active living cells to formazan, a purple colored precipitate. The amount of precipitate formed is proportional to the amount of living cells but also to the metabolic activity of each cell. Thus, a simple determination of the optical density at 540 nm by spectroscopy makes it possible to determine the relative amount of living and metabolically active cells. After 48 hours, the medium is aspirated, and the cells are washed with phosphate-buffered saline (PBS) and then incubated with MTT (0.5 mg/ml in PBS) for about 2 hours. The MTT solution is aspirated and the purple crystals are dissolved in dimethyl sulfoxide (DMSO). The OD (optical density) is measured at 540 nm.
The control group is prepared in a similar manner to the groups studied without the addition of the molecules studied in the present text. […] For a concentration of 5 μM, the viability is close to 0%. This reflects the ability of the compound of formula (I) to kill mammary tumor cells.

[2] = test system: murine 4T1 mammary tumor cells; assay: Cell viability of 4T1 cells, CellTox Green Cytotoxicity Assay; settings: Mus musculus, 4T1, Green Cytotoxicity Assay, 48 h
Procedure: Cell viability tests were performed on murine 4T1 mammary tumor cells characterized as triple negative (HER2-, ER-, PR-).
For this experiment, a cell culture medium was prepared. The culture medium consisted of Dulbecco's Modified Eagle Medium (DMEM, sold by Westburg as LO BE12-604F), comprising 4.5 g/L glucose with L-glutamine, to which 10% fetal calf serum (FCS) and 50 U/ml penicillin/streptomycin are added. The 4T1 cells were introduced into this culture medium.
96-well plates were seeded with 2000 4T1 cells per well. After 72 hours (h) of culture under normal condition, i.e. in an incubator at 37° C. at […], the 4T1 cells were treated for 48 h with DX101, DX103, DX111, DX123, DX125, DX127 and DX129 at 100 nM, 1 μM, 2.5 μM and 10 μM. A control condition (CTL) is also performed in parallel using the previously described protocol without treatment with the molecules DX101, DX103, DX111, DX123, DX125, DX127 or DX129.
For the third method, the percentage viability is determined using the CellTox Green Cytotoxicity Assay kit (Promega). This assay measures cell death via a change in membrane integrity. […] Consequently, the higher the fluorescence in the wells, the greater the cell death. […] The percentage of cell death is determined using the 100% cell death control (made from untreated cells incubated in the presence of the lysis solution for 30 minutes at 37° C. prior to the addition of Celltox green reagent), and the cell viability in each well is then deduced from this percentage. The IC50 is then determined as explained previously.

[3] = log of IC50 in μM, read-out: Mean LogIC50 (±SEM) (converted)

| SMILES | Mean LogIC50 (±SEM) [1] | IC50 [1] [µM] | cell viability in MTT compared with the control (MCF-7 breast tumor cells) | viability at 5 µM (MCF-7 breast tumor cells) [%] | IC50 [2, 3] [µM] | IC50 ([2]; read-out: IC50) [µM] |
| --- | --- | --- | --- | --- | --- | --- |
| CC(C)CCC[C@@H](C)[C@H]1CC[C@H]2[C@@H]3C[C@@H](NCCc4c[nH]cn4)[C@@]4(O)C[C@@H](O)CC[C@]4(C)[C@H]3CC[C@]12C [DX101, 5α-hydroxy-6β-[2-(1H-imidazol-4-yl)ethylamino]cholestan-3β-ol, reference compound] | 1.03 ± 0.06 | 10.6 | dose-dependent decrease | ~0 | 2.69 | 2.68 |
| CC(C)CCC[C@@H](C)[C@H]1CC[C@H]2[C@@H]3C[C@@H](NCCc4c[nH]cn4)[C@@]4(O)C[C@@H](F)CC[C@]4(C)[C@H]3CC[C@]12C [DX111, 3β-fluoro-5α-hydroxy-6β-[2-(1H-imidazol-4-yl)ethylamino]cholestane] | 0.89 ± 0.04 | 7.82 | dose-dependent decrease | ~0 | 2.19 | 2.18 |
